Structures are written as SMILES.

Details in one series: not given
`Cc1c(NC(C)C)c(=O)n(-c2ccccc2)n1C` yielded a melting point of 80 °C.
In turn, `CN` returned a boiling point of -6.3 °C, a log10 Henry constant (atm·m³/mol) of -4.95, a log10 Koa of 1.9 and a log10 vapour pressure (mmHg) of 3.42. In addition, the ready biodegradability entry is “readily biodegradable”.
For `O=S(=O)(O)C(F)(F)C(F)(F)C(F)(F)C(F)(F)C(F)(F)F`, the boiling point worked out at 225 °C.
For `FC(F)(Cl)CBr`, the boiling point was 68.4 °C and the melting point is -76 °C.
For `OCc1cc(Br)ccc1O`, the melting point turned out to be 113 °C.
As for `Cc1ccccc1`, the boiling point is 111 °C, the log10 Henry constant (atm·m³/mol) is -2.18, the log10 biodegradation half-life (days) was determined as 0.301 and the log10 vapour pressure (mmHg) turned out to be 1.45. Also, the melting point is -94.9 °C and the ready biodegradability result is “readily biodegradable”.
Turning to `c1ccc(Cc2ccncc2)cc1`, the boiling point stood at 288 °C and the melting point worked out at 12.4 °C.
For the compound `N#Cc1cccc(F)c1`, the boiling point was 182 °C and the melting point was -16 °C.
Compound `CC1C=CC(=O)O1` (stereo not drawn) showed a boiling point of 209 °C.
`O=C(C[N+](=O)[O-])Nc1ccccc1` had a melting point of 94 °C.
`C=C[C@H]1C[N@@]2CC[C@H]1C[C@H]2[C@H](O)c1ccnc2ccc(OC)cc12.Cl` yielded a melting point of 159 °C.
Take `CC(=O)N(CC(C)C(=O)O)c1c(I)cc(I)c(N)c1I` (stereo not drawn): the melting point came to 224 °C.
Regarding `C=CCCCCCCCCCCCCCC`, the boiling point was determined as 285 °C, the log10 vapour pressure (mmHg) is -2.58, the melting point was found to be 4.1 °C and the ready biodegradability entry is “readily biodegradable”.
On to `CCOC(C)OCC`, for which the boiling point is 102 °C, the log10 vapour pressure (mmHg) is 1.44 and the melting point was -100 °C.
With `O=C(O)c1ccc(F)c(F)c1F`, the melting point came out at 141 °C.
Still for that read-out and setting: under `O=C(C=Cc1ccco1)C=Cc1ccco1` stands 60.5 °C; under `CC(C)(C(=O)O)C(C)(C)C(=O)O`, 200 °C.
`C=C(C)C(C)CC` (stereo not drawn) yielded a boiling point of 84.3 °C, a log10 vapour pressure (mmHg) of 1.91 and a melting point of -134 °C.
`CCCCCCCCCCCCCCc1ccccc1`: the boiling point was determined as 359 °C, the log10 vapour pressure (mmHg) was -4.62 and the melting point was found to be 16 °C.
In turn, `C1CCC2CCCCC2C1` (stereo not drawn) had a boiling point of 180 °C, a log10 Koc (L/kg) of 3.67, a log10 vapour pressure (mmHg) of 0.114 and a melting point of -38.7 °C. Also, the ready biodegradability entry is reported as “not readily biodegradable”.
Consider `C[C@@H](Cc1ccccc1)NCCC(c1ccccc1)c1ccccc1`, for which the melting point was found to be 36.5 °C.
`COc1ccc2c3c1O[C@H]1[C@@H](O)CC=C4[C@@H](C2)N(C)CC[C@]431`: the melting point came out at 128 °C.
On to `CC(C)(SC(=O)N1CCCCC1)c1ccccc1`, for which the log10 vapour pressure (mmHg) was -5.4 and the melting point was 39 °C.
The compound `C[Si](C)(C)O[Si](C)(C)O[Si](C)(C)O[Si](C)(C)O[Si](C)(C)O[Si](C)(C)O[Si](C)(C)O[Si](C)(C)O[Si](C)(C)C` came in with a boiling point of 308 °C.
For the compound `Clc1ccc(Cl)c(I)c1`, the boiling point came out at 253 °C and the melting point amounted to 22 °C.
Regarding `C[C@H](CC(=O)O)[C@H]1CC[C@H]2[C@@H]3CC[C@@H]4CCCC[C@]4(C)[C@H]3CC[C@]12C`, the melting point was determined as 177 °C.
Turning to `CCCCCCCCOC(=O)CCC`, the boiling point was 244 °C and the melting point was -55.6 °C.
The corresponding values for `OCc1cccnc1` are 266 °C and -6.5 °C.
For `CCC(C)Br` (stereo not drawn), the boiling point came out at 91.2 °C, the log10 vapour pressure (mmHg) turned out to be 1.76 and the melting point was -112 °C.
Turning to `C1CCCOCC1`, the boiling point was 119 °C.
With `CCC(C)Cl` (stereo not drawn), the boiling point turned out to be 68 °C, the log10 Henry constant (atm·m³/mol) was -1.62, the log10 vapour pressure (mmHg) stood at 2.19 and the melting point is -140 °C.
The compound `CCCCC(O)C(=O)O` (stereo not drawn) yielded a boiling point of 305 °C, a log10 vapour pressure (mmHg) of -5.5 and a melting point of 61 °C.
The compound `CCCCCCCI` showed a boiling point of 204 °C, a log10 Henry constant (atm·m³/mol) of -1.41, a log10 vapour pressure (mmHg) of -0.351 and a melting point of -48.2 °C.
For `Clc1ccc(C(Cl)(Cl)Cl)cc1`, the boiling point worked out at 245 °C.
With `O=C(Cn1ccnc1[N+](=O)[O-])NCc1ccccc1`, the melting point stood at 189 °C.
Take `CCCCOC(=O)c1ccc(O)cc1`: the melting point came out at 68.5 °C.
`NN1CCOCC1` came in with a boiling point of 166 °C.
For the compound `Cc1ccc(Cl)cc1C`, the boiling point came out at 194 °C and the melting point was -6 °C.

Staying with this series, now noted: fish.
On to `Cc1ccccc1`, for which the log10 BCF was 0.92.
With `Brc1cc(Br)c(-c2ccccc2)c(Br)c1`, the log10 BCF is 3.87 and the log10 biotransformation half-life (days) stood at 1.25.
For `C=CCCCCCCCCCCCCCC`, the log10 biotransformation half-life (days) was found to be 1.67.
`C1CCC2CCCCC2C1` (stereo not drawn) gave a log10 BCF of 3.25.

These data come from the OPERA property sets (Mansouri et al. 2018).
